Tests used:
Type in all cases: physicochemical
[1] = Stability and flowability of the solid form (statement, no method given)
[2] = Thermogravimetric analysis (TGA) of Forms T14 and T15; details: temperature changed from 27.1° C. to 170° C.
Procedure: Procedure for Thermo Gravimetric Analysis (TGA) for Forms T14 and T15:
Thermogravimetric analysis was conducted on a TA instrument Q500 thermogravimetric analyzer. About 9.4 mg sample was placed into a tared TGA crucible and placed into a TGA furnace. The furnace was heated under nitrogen at a heating rate of 10° C./min up to 250° C.

[3] = Karl Fischer water content
Procedure: Water content analysis was performed on Metrohm 890 Titando instrument. About 100 mg sample was added to the titrator, the water content is measured in % w/w by measuring the amount of iodine consumed as a result of reaction with water in the sample.

SMILES	flowability [1]	stability of the crystalline form [1]	weight loss of the weight of the sample (TGA) [2]	moisture / water content (KF Titration method) [3]
N#Cc1ccnc(N2C(=O)CC[C@H]2C(=O)N(c2cncc(F)c2)[C@H](C(=O)NC2CC(F)(F)C2)c2ccccc2Cl)c1 [Form T11, Ivosidenib]	very good flowability	stable	–	–
N#Cc1ccnc(N2C(=O)CC[C@H]2C(=O)N(c2cncc(F)c2)[C@H](C(=O)NC2CC(F)(F)C2)c2ccccc2Cl)c1 [Form T14, Ivosidenib]	–	–	about 2.786%	2.7%
N#Cc1ccnc(N2C(=O)CC[C@H]2C(=O)N(c2cncc(F)c2)[C@H](C(=O)NC2CC(F)(F)C2)c2ccccc2Cl)c1 [Form T15, Ivosidenib]	–	–	about 3.899%	3.39%

— US11673880B2, “Solid state forms of ivosidenib” (ASSIA CHEMICAL INDUSTRIES LTD., priority 2017, dated 2023)
